The results in this text go back to patent US20260263468A1 (Fundación Instituto de Investigación Sanitaria Fundación …, priority 2023, published 2026).

Test [1] deals with K/B×N serum transfer-induced arthritis. As to the kind of experiment: Motor activity tests in K/B×N serum transfer arthritis. In kind it is in vivo, C57BL/6 mice. As to the method:
Physical activity tests were performed to assess the motor development of the mice during the arthritic process as follows:
Ambulation in 12-week-old male C57BL/6 mice was recorded following the protocol described by Gibbs and Crosbie-Watson (2). Mice were placed in individual recording chambers and were allowed to freely move for 6 min. Distance traveled by each animal was determined using object tracking in Kinovea open-source video analysis software (V 0.9.5).
The coordinated motor function of the four limbs was evaluated with the rotarod test (Rotarod, Harvard Apparatus, USA) with male C57BL/6 mice at the age of 12-week-old. Burgos et al. protocol was followed with modifications (76). Mice were first familiarized with the rotarod by letting them stay for 120s on the rod rotating at 4 and 6 rotations per minute (rpm). Motor activity was assessed by training the mice with an accelerated rotarod protocol of three trials, during which the rod accelerated from 4 rpm to 40 rpm within 5 min.
Ambulation in 12-week-old male C57BL/6 mice was recorded following the protocol described by Gibbs and Crosbie-Watson (see references in ref. 44). Mice were placed in individual recording chambers and were allowed to freely move for 6 min. Distance traveled by each animal was determined using object tracking in Kinovea open-source video analysis software (V 0.9.5).
The Grip Strength Meter (Ugo Basile, #47200) was utilized to assess the grip strength peak of the forelimbs. The mouse held onto a bar, and the highest force exerted during the pull was measured in grams using a digital force transducer. In the test, the mouse gripped a bar attached to the force gauge. Next, an investigator pulled the mouse's tail backward. The gauge recorded tension at the moment the mouse released its forepaws from the bar.
The coordinated motor function of the four limbs was evaluated with the rotarod test (Rotarod, Harvard Apparatus, USA) with male C57BL/6 mice at the age of 12-week-old. Burgos et al. protocol was followed with modifications (see references in ref. 44). Mice were first familiarized with the rotarod by letting them stay for 120s on the rod rotating at 4 and 6 rotations per minute (rpm). Motor activity was assessed by training the mice with an accelerated rotarod protocol of three trials, during which the rod accelerated from 4 rpm to 40 rpm within 5 min.

In test [2] the test system is C2C12 myobundles. Description: C2C12 3D myobundle with IL-6 ± dipyridamole. The conditions noted are these: IL-6 2.5 μg/ml ± dipyridamole 1 μM, 14 days; Sham 890±39. In kind it is cell-based. The source says:
C2C12 myobundles were fabricated following the protocol described by Bursac group (see references in ref. 44). Briefly, molds of polydimethylsiloxane (PDMS) designed for 12-well plates were created from Teflon masters with semicylindrical wells. These molds were sterilized, coated with 0.2% (w/v) Pluronic F-127 (Invitrogen) to prevent tissue adhesion, and paired with laser-cut Cerex frames (9×9 mm^2, 1-mm-wide rim) for myobundle attachment. The frames served as an anchor and guide during hydrogel compaction, ensuring uniaxial cell alignment. C2C12 cells were encapsulated in a hydrogel solution, including bovine fibrinogen (Sigma-Aldrich), matrigel (Corning), bovine thrombin (Sigma-Aldrich), and growth medium as concentration of bursac group indicates Referencias. The cell/hydrogel mixture was polymerized in the PDMS molds, and myobundles were cultured in a humidified chamber at 37° C., in 95% air and 5% CO2. After 4 days, the frames with myobundles were suspended in DM with treatments. DM and treatments are replaced every two days. GM and DM media contained 6-aminocaproic acid to reduce fibrinolysis. […] After the 14 days of treatment a bright-field photograph was taken to analyze the thickness of the fiber at its midpoint, and subsequently, they were embedded in OCT medium. […]

A short description of test [3]: Body composition by DXA scan. In kind it is in vivo, C57BL/6J mice. As to conditions: healthy mice, dipy treatment alone, 2 weeks.
Experimental: Previously to arthritis induction and sacrifice day, all mice underwent DXA scan. For DXA analysis, a Lunar PIXImus densitometer (software version 2.10) was calibrated using a hydroxyapatite phantom provided by the manufacturer (Lunar Corp, Madison, WI). Subsequently, mice were anesthetized and whole-body scans were conducted. Data analysis consisted of whole-body lean mass, fat mass, bone mineral density and bone mineral content. […] Previously to arthritis induction and sacrifice day, all mice underwent DXA scan. For DXA analysis, a Lunar PIXImus densitometer (software version 2.10) was calibrated using a hydroxyapatite phantom provided by the manufacturer (Lunar Corp, Madison, WI). Subsequently, mice were anesthetized and whole-body scans were conducted. Data analysis consisted of whole-body lean mass, fat mass, bone mineral density and bone mineral content.
For test [4], the system named is C2C12. As to the kind of experiment: Western blot of PKA isoforms, pCREB, EPAC1/2. In kind it is cell-based. The conditions noted are these: 1 μM. As to the method:
Cells were lysed with RIPA buffer and protein concentration was determined by BCA. […] Variations in intensity were expressed as % of basal (day 0) and expressed as mean±SEM. All results were calculated as a percentage of non-differentiated controls to minimize the intrinsic variation among different experiments.
To study the CAMP signaling pathway, we analyzed the expression of PKA on its three catalytic isoforms PKAα, PKAβ and PKAγ as well as EPAC1/2. […] Tenofovir reduced its phosphorylation (154±9% tenofovir vs 247±30% control at day 4, p<0.05, FIG. 3B).

Test [5] relates to K/B×N serum transfer-induced arthritis. As to the kind of experiment: K/B×N serum transfer-induced arthritis, acute model: joint thickness, clinical score, body weight. The test is classed as in vivo, C57BL/6J mice. As to the method: In their quest for a model of inflammatory arthritis which could display associated sarcopenia the inventors employed serum transfer from K/B×N progeny in 12-wk-old C57BL/6J mice. Arthritic K/B×N mice were generated by crossing KRN mice with NOD/Lt mice. Serum was collected and pulled. Age-matched, male recipient, 12-wk-old C57BL/6J mice were purchased from Charles River Laboratories (Barcelona, España). C57BL/6J mice were injected with pooled serum (100 μl, I.P.) from K/B×N mice on day 0 and 2.
(§1) Development of arthritis was assessed daily, and the severity of arthritis was assessed in each paw on a 4-point scale defined as follows: 0=normal appearance, 1=localized edema/erythema over one surface of the paw, 2=edema/erythema involving more than one surface of the paw, and 3-4=marked edema/erythema involving the whole paw. Scores of all 4 paws were added for a composite score. All motor activity tests were performed prior to serum inoculation and at the highest point of inflammation. Mice were euthanized on day 14. Gastronemius and quadriceps were collected for protein and RNA extraction. Tibialis and soleus were included for freeze histology following the indications of H. Meng (1). Bones were prepared for micro-computed tomography (microCT) and histology. White adipose tissue (WAT) and brown adipose tissue (BAT) were collected for histology and protein extraction. Blood was drawn and serum was isolated for measurement of inflammatory cytokines and C-reactive protein (CPR).
Animals were sacrificed 30 days after serum transfer.
as §1, with “Mice were weighted weekly. Development” for “Development”, “16 for acute inflammation model or 30 days for Inflammation resolved model. A representative photo of body structure and muscle of pawn were taken on this day.” for “14.”, “was” for “and quadriceps were”, “(see references in ref. 44).” for “(1).”, “histology.” for “histology. White adipose tissue (WAT) and brown adipose tissue (BAT) were collected for histology and protein extraction.”

In the case of `OCCN(CCO)c1nc(N2CCCCC2)c2nc(N(CCO)CCO)nc(N3CCCCC3)c2n1` [dipyridamole, 2,6-bis(Diethanolamino)-4,8-dipiperidinopyrimido[5,4-d]pyrimidine], in test [1] (arthritic mice + dipyridamole, 2 weeks, arthritic 830±37, sham 1393±187), the “Ambulatory activity: distance travelled” value turned out to be 1203±53 cm. Further, the “Two limb hanging test average score” value in test [1] (arthritic mice + dipyridamole, arthritic 3.6±3.3, sham 12±3) was 9.8±2. Moreover, in test [1] (arthritic mice + dipyridamole, arthritic 43.3±5.4, sham 75.9±3.3), the “Rotarod latency to fall” value is listed as 73.3±10.9 seg. For the same compound, the “Motor tests (ambulatory activity, grip strength, two limb hanging, rotarod)” value in test [1] (healthy mice, dipy alone vs sham) is “behave similar”. Besides, the Myobundle thickness result in test [2] is “did not lead to an alteration of the muscle fiber”. For the same compound, the “Body composition (DXA)” value in test [3] is “did not produced alterations in body composition”. In test [4] (day 4, control 247±30%), the “pCREB (% of basal)” value was 275±73%. Besides, the EPAC2 protein expression result in test [4] (within differentiation) is “decreased”. In addition, the Weight loss in test [5] (arthritic mice, 2 weeks of treatment, arthritic 14.2±4.1%) came to 6.2±3.4%. In addition, the “Paw (joint) thickness” value in test [5] (arthritic mice, daily dipyridamole, 2 wk, arthritic 1.72±0.09) worked out at 0.5±0.01 mm. Besides, in test [5] (arthritic mice, daily dipyridamole, 2 wk, arthritic 14±1), the “Clinical score (inflammation)” value worked out at 5±3. Besides, in test [5] (healthy mice, dipy alone, two weeks), the “Hind paw musculature (macroscopic)” value is listed as “no significant changes”. In test [5] (healthy mice, dipyridamole 25 mg/kg/day alone, 2 weeks), the Percentage of weight entry is listed as “did not change”.
